Laboratory results: the NIST ThermoML archive (doi:10.1016/j.jct.2014.03.022)

Assay: xn = mol fraction of the nth substance listed
Conditions: for surface tension liquid-gas: Wilhelmy plate method; for viscosity: 101.3 kPa, Liquid, Concentric cylinders viscometry

CCCCCCCCCCO [decan-1-ol] + CN(C)C=O
Conditions	surface tension liquid-gas, 298.15 K [mN/m]	surface tension liquid-gas, 303.15 K [mN/m]	surface tension liquid-gas, 308.15 K [mN/m]	surface tension liquid-gas, 313.15 K [mN/m]	viscosity, 298.15 K [mPa·s]	viscosity, 303.15 K [mPa·s]	viscosity, 308.15 K [mPa·s]	viscosity, 313.15 K [mPa·s]
x2 = 0	28.35	27.29	26.23	25.17	11.83	9.754	8.135	6.842
x2 = 0.2361	28.83	27.74	26.67	25.61	4.984	3.776	2.992	2.357
x2 = 0.4193	29.21	28.08	26.99	25.92	2.622	1.816	1.359	0.9811
x2 = 0.5688	29.6	28.43	27.31	26.23	1.623	1.092	0.7935	0.5801
x2 = 0.6724	30.14	28.95	27.82	26.74	1.238	0.8423	0.6257	0.47
x2 = 0.7496	30.78	29.6	28.46	27.38	1.03	0.7268	0.5631	0.443
x2 = 0.8185	31.61	30.43	29.3	28.23	0.9299	0.7011	0.5754	0.479
x2 = 0.8748	32.48	31.32	30.2	29.15	0.8732	0.7131	0.6216	0.5385
x2 = 0.923	33.41	32.27	31.15	30.12	0.8501	0.7459	0.6802	0.6027
x2 = 0.9632	34.3	33.18	32.07	31.05	0.8317	0.7627	0.7103	0.6468

CCCCCCCCCO [nonan-1-ol] + CN(C)C=O
Conditions	surface tension liquid-gas, 298.15 K [mN/m]	surface tension liquid-gas, 303.15 K [mN/m]	surface tension liquid-gas, 308.15 K [mN/m]	surface tension liquid-gas, 313.15 K [mN/m]	viscosity, 298.15 K [mPa·s]	viscosity, 303.15 K [mPa·s]	viscosity, 308.15 K [mPa·s]	viscosity, 313.15 K [mPa·s]
x2 = 0	27.58	26.53	25.49	24.44	9.715	7.927	6.664	5.645
x2 = 0.2201	28.12	27.04	25.98	24.92	4.766	3.633	2.965	2.416
x2 = 0.3969	28.54	27.42	26.33	25.27	2.715	1.932	1.532	1.196
x2 = 0.5458	28.97	27.81	26.7	25.62	1.77	1.213	0.9531	0.7287
x2 = 0.6515	29.58	28.39	27.27	26.18	1.373	0.9494	0.7597	0.5913
x2 = 0.7321	30.3	29.11	27.98	26.9	1.156	0.8443	0.6817	0.5692
x2 = 0.8042	31.21	30.03	28.9	27.83	1.022	0.7978	0.6695	0.5762
x2 = 0.8644	32.19	31.02	29.9	28.85	0.9434	0.7834	0.6881	0.6071
x2 = 0.9168	33.23	32.08	30.97	29.93	0.8898	0.7837	0.7189	0.6468
x2 = 0.9596	34.2	33.07	31.97	30.95	0.8529	0.7764	0.727	0.6663

CCCCCCCCO [octan-1-ol] + CN(C)C=O
Conditions	surface tension liquid-gas, 298.15 K [mN/m]	surface tension liquid-gas, 303.15 K [mN/m]	surface tension liquid-gas, 308.15 K [mN/m]	surface tension liquid-gas, 313.15 K [mN/m]	viscosity, 298.15 K [mPa·s]	viscosity, 303.15 K [mPa·s]	viscosity, 308.15 K [mPa·s]	viscosity, 313.15 K [mPa·s]
x2 = 0	27.47	26.42	25.41	24.38	7.661	6.402	5.425	4.628
x2 = 0.2198	28.07	26.98	25.95	24.91	4.082	3.243	2.678	2.2
x2 = 0.3728	28.37	27.25	26.18	25.13	2.636	2.012	1.646	1.35
x2 = 0.5208	28.77	27.6	26.5	25.43	1.794	1.355	1.106	0.9143
x2 = 0.6277	29.36	28.17	27.05	25.97	1.41	1.089	0.8992	0.7523
x2 = 0.7118	30.1	28.9	27.77	26.7	1.193	0.9412	0.804	0.7006
x2 = 0.7877	31.04	29.85	28.72	27.66	1.052	0.8817	0.765	0.6768
x2 = 0.8519	32.05	30.88	29.76	28.7	0.9693	0.8339	0.7497	0.6694
x2 = 0.9085	33.13	31.98	30.87	29.84	0.9042	0.8153	0.7484	0.6782
x2 = 0.9556	34.15	33.03	31.92	30.9	0.8603	0.7921	0.7395	0.6802
